Assay: Loading potential / solubility of low solubility agents in PEG400/myristic acid vehicles, nitrite saturated PEG400 and water
Assay type: physicochemical
Details: for dissolution in Sample 3 solvent system: Sample 3: 30 ml PEG400 + 0.75 grams MA; for dissolved material in aqueous solution: aqueous sample
Experimental: Vehicles for loading the active ingredient were prepared as illustrated in samples 1-4. Myristic acid (solid flakes) was dissolved in PEG400 upon warming the mixture in a warm water bath. Shaking accelerated the formation of the resulting clear solution. The following four concentrations of myristic acid (MA) in PEG400 were prepared and evaluated. Samples 1, 2, 3 and 4 were all clear solutions when the samples were allowed to attain ambient temperatures.
The samples as vehicles were loaded with NO enhancing agent. […] Samples 1 and 2 were initially liquid but formed a solid uniform gel over a period of several hours. Sample 3 was prepared by dissolving 0.75 grams of MA in 30 ml's of PEG400 and heating in a water bath (˜60-80 C) for ˜15 minutes. Sample 4 was prepared by dissolving 2.25 grams of MA in 30 mls of PEG400 and heating in a water bath (˜60-80 C) for ˜15 minutes. Both sample 3 and sample 4 were uniform solutions when the heating cycle was finished. Upon cooling sample 3 remained liquid whereas sample 4 formed a uniform gel. […]
The Sample 3 solvent system was also tested as a vehicle for loading potential with the following low solubility reagents using the above method: quercetin, berberine, N-acetyl cysteine amide (NACA) and N-acetyl cysteine ethyl ester (NAC-ethylester).
The solutions of the two lipophilic NAC derivatives were prepared using sodium nitrite saturated PEG400, resulting in a clear solution. […] NAC is water soluble and the two derivatives are marginally soluble in water. The two solutions were then treated with several drops of acetic acid to trigger the formation of nitrous acid from the nitrite which can then nitrosate the reactive thiol on both of the NAC derivatives. The solutions turned pink indicative of S-nitrosothiol formation. The solutions remained pink for several days. The corresponding aqueous solutions lost color within hours. The use of nitrite saturated PEG400 allows for formulations that can be used to generate NO and S-nitrosothiols through mixing with reagents that acidify the mixture. A double frangible pouch incorporated into a patch may be used for a sustained NO delivery vehicle suitable for topical and transdermal applications.

Molecule: COc1cc(/C=C/C(=O)CC(=O)/C=C/c2ccc(O)c(OC)c2)ccc1O [Curcumin 95, curcumin]
- dissolving of the added curcumin (1.5 grams Curcumin 95 in Samples 1, 2, 3 (30 ml PEG400 + myristic acid), warmed, cooled to ambient): almost all of the added curcumin

Molecule: CC(=O)N[C@@H](CS)C(=O)O [NAC, N-acetyl cysteine]
- solubility in sodium nitrite saturated PEG400: limited solubility
- solubility in water: water soluble

Molecule: CCOC(=O)[C@H](CS)NC(C)=O [NAC-ethylester, N-acetyl cysteine ethyl ester]
- dissolution in Sample 3 solvent system: substantial dissolution

Molecule: COc1ccc2cc3[n+](cc2c1OC)CCc1cc2c(cc1-3)OCO2 [berberine]
- dissolution in Sample 3 solvent system: substantial dissolution
- dissolved material in aqueous solution: minimal dissolved material

Molecule: COc1cc(/C=C/C(=O)CC(=O)/C=C/c2ccc(O)c(OC)c2)ccc1O [curcumin]
- dissolution in water (colour of liquid phase) (same amount of curcumin in same volume of water (3 g in 30 ml)): almost no color in the liquid phase

Molecule: O=c1c(O)c(-c2ccc(O)c(O)c2)oc2cc(O)cc(O)c12 [quercetin]
- solubility of quercetin: 200-300 mg in 30 ml
- solubilization in Sample 3: high degree of solubilization
- dissolution in Sample 3 solvent system: substantial dissolution
- dissolved material in aqueous solution: minimal dissolved material

Molecule: N-acetyl cysteine amide [NACA]
- dissolution in Sample 3 solvent system: substantial dissolution

— patent publication US20220142913A1, “TRANSDERMAL DELIVERY FORMULATIONS” (Albert Einstein College of Medicine, priority 2020, published 2022)
